Test results: ChEMBL document CHEMBL1139219, “Synthesis and biological evaluation of quinoline salicylic acids as P-selectin antagonists” (J Med Chem, 2007)
One block for each molecule: values may come before it. Calls of active or inactive are those of the source. No cut-off for these calls is given here.

What was measured:
HUVEC = test: Inhibition of neutrophil adhesion to IL4-stimulated HUVEC by leukocyte rolling assay; assay type: functional, cell-based; settings: Homo sapiens
[1] = target: Dihydroorotate dehydrogenase (quinone), mitochondrial (Homo sapiens, UniProt Q02127)
Chain of Dihydroorotate dehydrogenase (quinone), mitochondrial (Q02127 whole entry): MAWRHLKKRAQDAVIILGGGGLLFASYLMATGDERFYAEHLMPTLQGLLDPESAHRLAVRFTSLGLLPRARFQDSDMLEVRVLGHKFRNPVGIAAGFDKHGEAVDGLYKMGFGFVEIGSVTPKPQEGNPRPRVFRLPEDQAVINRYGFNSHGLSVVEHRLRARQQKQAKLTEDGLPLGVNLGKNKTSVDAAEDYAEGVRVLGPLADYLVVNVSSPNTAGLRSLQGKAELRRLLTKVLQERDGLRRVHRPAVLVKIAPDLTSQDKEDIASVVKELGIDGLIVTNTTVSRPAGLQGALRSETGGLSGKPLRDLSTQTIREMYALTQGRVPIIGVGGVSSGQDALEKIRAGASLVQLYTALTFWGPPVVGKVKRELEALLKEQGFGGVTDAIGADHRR
Description: Inhibition of human recombinant DHOD expressed in Escherichia coli

[2] = Cmax in Sprague-Dawley rat at 1 mg/kg, iv; assay type: ADME, organism-based; parameters: dose 1 mg/kg, route intravenous; settings: in vivo
[3] = AUC in Sprague-Dawley rat at 1 mg/kg, iv; assay type: ADME, organism-based; parameters: dose 1 mg/kg, route intravenous; settings: plasma
[4] = Clearance in Sprague-Dawley rat at 1 mg/kg, iv; assay type: ADME, organism-based; parameters: dose 1 mg/kg, route intravenous; settings: in vivo
[5] = target: P-selectin (Homo sapiens) (UniProt P16109); test: Inhibition of human recombinant P-selectin expressed in CHO cells by Biacore assay at 2 mM
Chain of P-selectin (Homo sapiens) (P16109 whole entry, looked up): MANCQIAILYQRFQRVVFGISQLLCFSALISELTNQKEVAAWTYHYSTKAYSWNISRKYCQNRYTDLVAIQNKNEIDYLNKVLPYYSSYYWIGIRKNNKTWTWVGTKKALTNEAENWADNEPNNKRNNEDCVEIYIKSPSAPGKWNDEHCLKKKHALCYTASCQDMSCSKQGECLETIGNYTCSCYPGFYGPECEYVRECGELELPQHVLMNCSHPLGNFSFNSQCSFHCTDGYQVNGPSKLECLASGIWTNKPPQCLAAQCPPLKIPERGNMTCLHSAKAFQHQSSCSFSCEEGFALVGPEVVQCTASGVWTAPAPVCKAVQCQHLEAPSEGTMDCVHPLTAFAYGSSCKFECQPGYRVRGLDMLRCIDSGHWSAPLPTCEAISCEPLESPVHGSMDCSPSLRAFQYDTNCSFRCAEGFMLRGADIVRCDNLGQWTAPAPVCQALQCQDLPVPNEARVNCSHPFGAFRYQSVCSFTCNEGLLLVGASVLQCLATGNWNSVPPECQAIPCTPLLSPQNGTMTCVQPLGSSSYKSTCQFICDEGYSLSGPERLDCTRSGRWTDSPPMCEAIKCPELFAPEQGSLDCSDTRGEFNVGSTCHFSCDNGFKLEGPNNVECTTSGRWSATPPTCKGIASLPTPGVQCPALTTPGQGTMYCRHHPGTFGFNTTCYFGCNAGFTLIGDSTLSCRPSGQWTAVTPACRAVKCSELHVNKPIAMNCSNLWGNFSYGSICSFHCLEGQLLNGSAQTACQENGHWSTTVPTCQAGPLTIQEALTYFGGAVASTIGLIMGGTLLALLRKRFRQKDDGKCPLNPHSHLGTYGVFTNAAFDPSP

Rattus norvegicus [6] = test: Inhibition of Freund's complete adjuvant-induced arthritis in Lewis rat at 5 mg/kg, po; assay type: functional, organism-based; parameters: dose 5 mg/kg
Cytochrome P450 2C19 = Cytochrome P450 2C19 (Homo sapiens, UniProt P33261); test: Inhibition of human CYP2C19; assay type: ADME
Chain of Cytochrome P450 2C19 (P33261 whole entry): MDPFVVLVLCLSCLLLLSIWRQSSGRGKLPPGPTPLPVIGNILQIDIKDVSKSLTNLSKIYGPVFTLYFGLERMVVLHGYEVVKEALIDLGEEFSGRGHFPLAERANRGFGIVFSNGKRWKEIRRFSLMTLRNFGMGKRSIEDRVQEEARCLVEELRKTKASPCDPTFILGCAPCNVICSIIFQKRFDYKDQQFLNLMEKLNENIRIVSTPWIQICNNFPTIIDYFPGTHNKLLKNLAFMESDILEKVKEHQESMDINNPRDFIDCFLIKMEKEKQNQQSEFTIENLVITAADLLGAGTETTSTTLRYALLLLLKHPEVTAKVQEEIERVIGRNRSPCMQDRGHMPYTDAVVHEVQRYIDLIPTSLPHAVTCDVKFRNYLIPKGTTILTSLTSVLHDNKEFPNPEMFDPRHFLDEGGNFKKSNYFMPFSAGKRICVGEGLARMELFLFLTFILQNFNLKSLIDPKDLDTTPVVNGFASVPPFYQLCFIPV

Cytochrome P450 3A4 = Cytochrome P450 3A4 (Homo sapiens, UniProt P08684); test: Inhibition of human CYP3A4; assay type: ADME
Chain of Cytochrome P450 3A4 (P08684 whole entry): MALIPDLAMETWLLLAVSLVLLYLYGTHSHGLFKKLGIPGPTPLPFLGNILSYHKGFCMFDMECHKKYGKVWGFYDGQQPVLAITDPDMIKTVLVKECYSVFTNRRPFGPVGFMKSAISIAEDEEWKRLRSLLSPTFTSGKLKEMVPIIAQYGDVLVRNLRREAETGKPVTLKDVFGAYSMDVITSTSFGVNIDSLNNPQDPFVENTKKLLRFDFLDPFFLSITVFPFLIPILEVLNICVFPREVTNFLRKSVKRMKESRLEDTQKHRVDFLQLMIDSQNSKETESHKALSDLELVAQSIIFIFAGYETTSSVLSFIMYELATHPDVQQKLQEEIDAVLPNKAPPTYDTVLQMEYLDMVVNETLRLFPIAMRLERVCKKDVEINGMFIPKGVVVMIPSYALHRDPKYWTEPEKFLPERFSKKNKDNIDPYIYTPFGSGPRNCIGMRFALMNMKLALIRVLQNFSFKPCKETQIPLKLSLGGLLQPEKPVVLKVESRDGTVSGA

Cytochrome P450 2A6 = target: T1, Cytochrome P450 2A6 (Homo sapiens, UniProt P11509); test: Inhibition of human CYP2A6; assay type: ADME
T1 sequence (P11509 whole entry): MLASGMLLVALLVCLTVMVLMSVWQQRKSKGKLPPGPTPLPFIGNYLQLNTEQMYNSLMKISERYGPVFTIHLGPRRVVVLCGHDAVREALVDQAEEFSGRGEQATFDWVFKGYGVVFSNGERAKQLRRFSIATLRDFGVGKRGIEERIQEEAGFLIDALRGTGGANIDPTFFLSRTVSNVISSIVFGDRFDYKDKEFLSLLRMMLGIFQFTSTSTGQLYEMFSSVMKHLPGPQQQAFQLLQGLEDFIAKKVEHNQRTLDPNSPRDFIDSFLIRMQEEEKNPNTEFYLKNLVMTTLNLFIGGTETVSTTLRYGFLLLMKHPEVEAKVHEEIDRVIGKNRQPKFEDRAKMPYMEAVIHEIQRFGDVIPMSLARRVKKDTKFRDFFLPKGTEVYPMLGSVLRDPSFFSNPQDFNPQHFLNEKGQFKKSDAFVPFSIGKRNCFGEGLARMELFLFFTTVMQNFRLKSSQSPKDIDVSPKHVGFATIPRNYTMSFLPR

Cytochrome P450 2C8 = target: T2, Cytochrome P450 2C8 (Homo sapiens, UniProt P10632); test: Inhibition of human CYP2C8; assay type: ADME
T2 sequence (P10632 whole entry): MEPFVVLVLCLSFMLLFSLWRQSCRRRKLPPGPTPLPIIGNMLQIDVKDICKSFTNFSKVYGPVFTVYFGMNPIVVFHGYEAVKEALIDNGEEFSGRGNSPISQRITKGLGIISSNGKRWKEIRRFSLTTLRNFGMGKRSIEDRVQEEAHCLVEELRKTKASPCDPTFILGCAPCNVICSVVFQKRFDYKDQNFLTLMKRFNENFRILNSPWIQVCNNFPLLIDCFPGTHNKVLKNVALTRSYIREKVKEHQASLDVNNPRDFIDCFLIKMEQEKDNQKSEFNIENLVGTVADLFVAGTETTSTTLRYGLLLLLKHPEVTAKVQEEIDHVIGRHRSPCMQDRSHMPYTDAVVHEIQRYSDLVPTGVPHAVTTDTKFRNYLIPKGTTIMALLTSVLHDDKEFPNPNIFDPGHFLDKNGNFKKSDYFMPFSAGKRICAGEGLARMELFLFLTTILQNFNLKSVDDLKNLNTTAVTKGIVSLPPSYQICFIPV

Rattus norvegicus [7] = test: Plasma concentration in Lewis rat Freund's complete adjuvant-induced arthritis model at 10 mg/kg, po; assay type: ADME, organism-based; parameters: dose 10 mg/kg, route oral; settings: in vivo
[8] = Oral bioavailability in rat; assay type: ADME, organism-based; settings: in vivo
Rattus norvegicus [9] = organism: Rattus norvegicus; test: Toxicity in Lewis rat Freund's complete adjuvant-induced arthritis model; assay type: organism-based; settings: in vivo
Cytochrome P450 1A2 = target: T3, Cytochrome P450 1A2 (Homo sapiens, UniProt P05177); test: Inhibition of human CYP1A2; assay type: ADME
T3 sequence (P05177 whole entry): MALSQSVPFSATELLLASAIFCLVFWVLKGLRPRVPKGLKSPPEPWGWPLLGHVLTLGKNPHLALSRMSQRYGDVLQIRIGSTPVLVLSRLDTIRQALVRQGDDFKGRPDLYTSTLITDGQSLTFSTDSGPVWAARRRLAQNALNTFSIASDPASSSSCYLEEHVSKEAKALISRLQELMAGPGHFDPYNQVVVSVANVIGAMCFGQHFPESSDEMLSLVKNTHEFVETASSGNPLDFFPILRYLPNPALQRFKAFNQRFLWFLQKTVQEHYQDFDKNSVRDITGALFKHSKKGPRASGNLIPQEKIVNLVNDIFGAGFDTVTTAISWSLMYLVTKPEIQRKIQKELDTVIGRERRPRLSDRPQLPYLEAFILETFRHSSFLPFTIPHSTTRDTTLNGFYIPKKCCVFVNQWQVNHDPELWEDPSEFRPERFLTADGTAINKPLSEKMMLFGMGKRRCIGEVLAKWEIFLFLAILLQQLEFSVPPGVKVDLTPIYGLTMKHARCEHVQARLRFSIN

Cytochrome P450 2D6 = Cytochrome P450 2D6 (Homo sapiens, UniProt P10635); test: Inhibition of human CYP2D6; assay type: ADME
Chain of Cytochrome P450 2D6 (P10635 whole entry): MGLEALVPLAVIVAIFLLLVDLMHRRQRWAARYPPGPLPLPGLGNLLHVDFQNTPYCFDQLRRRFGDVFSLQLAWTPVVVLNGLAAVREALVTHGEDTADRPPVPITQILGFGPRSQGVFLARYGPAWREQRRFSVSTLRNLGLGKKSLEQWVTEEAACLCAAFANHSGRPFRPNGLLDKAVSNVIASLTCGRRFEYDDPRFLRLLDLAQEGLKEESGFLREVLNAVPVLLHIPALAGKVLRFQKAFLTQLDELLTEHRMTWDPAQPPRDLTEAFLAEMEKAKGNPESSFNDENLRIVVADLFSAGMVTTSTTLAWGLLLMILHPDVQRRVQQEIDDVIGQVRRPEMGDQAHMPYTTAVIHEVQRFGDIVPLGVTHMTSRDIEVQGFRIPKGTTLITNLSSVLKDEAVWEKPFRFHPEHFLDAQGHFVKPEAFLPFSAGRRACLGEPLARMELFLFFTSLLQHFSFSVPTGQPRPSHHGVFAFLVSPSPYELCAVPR

Cytochrome P450 2C9 = Cytochrome P450 2C9 (Homo sapiens, UniProt P11712); test: Inhibition of human CYP2C9; assay type: ADME
Chain of Cytochrome P450 2C9 (P11712 whole entry): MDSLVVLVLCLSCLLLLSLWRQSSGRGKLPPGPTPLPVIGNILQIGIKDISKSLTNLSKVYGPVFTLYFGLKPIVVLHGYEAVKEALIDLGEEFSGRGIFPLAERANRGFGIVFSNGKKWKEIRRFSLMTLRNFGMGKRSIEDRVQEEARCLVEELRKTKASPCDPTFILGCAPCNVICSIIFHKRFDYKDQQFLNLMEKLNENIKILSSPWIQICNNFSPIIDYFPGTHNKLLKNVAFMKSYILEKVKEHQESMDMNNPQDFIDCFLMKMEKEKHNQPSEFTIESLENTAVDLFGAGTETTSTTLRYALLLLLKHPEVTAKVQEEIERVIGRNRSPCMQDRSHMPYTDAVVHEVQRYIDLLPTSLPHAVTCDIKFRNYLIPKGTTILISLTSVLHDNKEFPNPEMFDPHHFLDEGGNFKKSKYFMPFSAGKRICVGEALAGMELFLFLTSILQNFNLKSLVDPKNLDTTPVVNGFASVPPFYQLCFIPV

[10] = target: P-selectin (Homo sapiens) (UniProt P16109); test: Inhibition of human recombinant P-selectin expressed in CHO cells by Biacore assay at 6 mM
Rattus norvegicus [11] = test: Inhibition of carrageenan-induced paw edema in Sprague-Dawley rat at 50 mg/kg, po; assay type: functional
Rattus norvegicus [12] = test: Inhibition of carrageenan-induced paw edema in Sprague-Dawley rat at 5 mg/kg, po; assay type: functional
Rattus norvegicus [13] = test: Inhibition of carrageenan-induced paw edema in Sprague-Dawley rat at 1 mg/kg, po; assay type: functional
Rattus norvegicus [14] = test: Inhibition of carrageenan-induced paw edema in Sprague-Dawley rat at 0.5 mg/kg, po; assay type: functional
Rattus norvegicus [15] = test: Inhibition of carrageenan-induced paw edema in Sprague-Dawley rat at 10 mg/kg, po; assay type: functional
[16] = target: P-selectin (Homo sapiens) (UniProt P16109); test: Inhibition of human recombinant P-selectin expressed in CHO cells by Biacore assay at 250 uM
[17] = target: Dihydroorotate dehydrogenase (quinone), mitochondrial (Rattus norvegicus) (UniProt Q63707)
Chain of Dihydroorotate dehydrogenase (quinone), mitochondrial (Rattus norvegicus) (Q63707 whole entry): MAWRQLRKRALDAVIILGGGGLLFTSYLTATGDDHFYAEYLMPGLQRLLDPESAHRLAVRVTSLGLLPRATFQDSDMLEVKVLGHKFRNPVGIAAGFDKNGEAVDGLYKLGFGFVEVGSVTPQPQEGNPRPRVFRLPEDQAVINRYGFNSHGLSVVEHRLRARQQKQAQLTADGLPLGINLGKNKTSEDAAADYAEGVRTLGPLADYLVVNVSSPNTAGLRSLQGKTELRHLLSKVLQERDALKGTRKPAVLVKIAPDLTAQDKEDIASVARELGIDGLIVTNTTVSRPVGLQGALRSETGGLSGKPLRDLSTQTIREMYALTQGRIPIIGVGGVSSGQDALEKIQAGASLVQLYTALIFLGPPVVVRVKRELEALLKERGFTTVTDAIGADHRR
Description: Antagonist activity against DHOD in rat

- IC50 [1]: 135 µM
Structure (SMILES): O=C(O)c1ccc(-c2ccc3nc(-c4ccc(Cl)cc4)c(O)c(C(=O)O)c3c2)cc1

- inhibition [5]: 38%
Structure (SMILES): O=C(O)c1c(O)c(-c2ccc(Cl)cc2)nc2ccc(Cl)cc12

- IC50 [1]: 141 µM
Structure (SMILES): O=C(O)c1c(O)c(-c2ccc(Cl)cc2)nc2c(Cl)cccc12
- IC50 (HUVEC): 22 µM

- IC50 [1]: 134 µM
Structure (SMILES): O=C(O)c1c(O)c(-c2ccc(Cl)cc2)nc2ccc(-c3ccsc3)cc12

- IC50 [1]: 306 µM
Structure (SMILES): COc1cccc2c(C(=O)O)c(O)c(-c3ccc(Cl)cc3)nc12

- IC50 (Cytochrome P450 2C19): 146 µM
- IC50 (Cytochrome P450 3A4): 55 µM
- Cmax [2]: 9 µM
- IC50 (Cytochrome P450 2A6): 500 µM
- IC50 (Cytochrome P450 2C8): 4.8 µM
- concentration (Rattus norvegicus [7]): 500 nM
- bioavailability [8]: 24%
- AUC [3]: 3.93 µM·h
- IC50 (Cytochrome P450 1A2): 500 µM
- IC50 (Cytochrome P450 2D6): 151 µM
- IC50 (Cytochrome P450 2C9): 8.2 µM
- clearance [4]: 9.1 mL/min/kg
Structure (SMILES): O=C(O)c1c(O)c(-c2ccc(Cl)cc2)nc2c(-c3ccccc3)cccc12
- IC50 (HUVEC): 4.5 µM
- Activity (Rattus norvegicus [9]): Non-toxic

- IC50 [1]: 230 µM
Structure (SMILES): O=C(O)c1c(O)c(-c2ccc(Cl)cc2)nc2ccc(-c3ccccc3)cc12

- IC50 (Cytochrome P450 2C19): 1 µM
- IC50 (Cytochrome P450 3A4): 7 µM
- Cmax [2]: 13 µM
- IC50 (Cytochrome P450 2A6): 20 µM
- IC50 (Cytochrome P450 2C8): 9 µM
- concentration (Rattus norvegicus [7]): 1800 nM
- AUC [3]: 7.68 µM·h
- IC50 (Cytochrome P450 1A2): 4 µM
- IC50 (Cytochrome P450 2D6): 17 µM
- IC50 (Cytochrome P450 2C9): 2 µM
- clearance [4]: 6.2 mL/min/kg
Structure (SMILES): Cc1ccc2c(C(=O)O)c(O)c(-c3ccc(Cl)cc3)nc2c1C
- inhibition in vivo at 50 mg/kg (Rattus norvegicus [11]): 15.6%
- IC50 (HUVEC): 10 µM
- inhibition in vivo at 5 mg/kg (Rattus norvegicus [12]): 10.3%
- inhibition in vivo at 1 mg/kg (Rattus norvegicus [13]): 12.8%
- inhibition in vivo at 0.5 mg/kg (Rattus norvegicus [14]): 10.8%
- inhibition in vivo at 10 mg/kg (Rattus norvegicus [15]): 14.1%
- Activity (Rattus norvegicus [9]): Non-toxic

- inhibition [16]: 39%
Structure (SMILES): COc1ccc(-c2ccc3nc(-c4ccc(Cl)cc4)c(O)c(C(=O)O)c3c2)cc1

- IC50 [1]: 132 µM
Structure (SMILES): O=C(O)c1c(O)c(-c2ccc(Cl)cc2)nc2c(Br)cccc12
- IC50 (HUVEC): 20 µM

- IC50 [1]: 151 µM
Structure (SMILES): COc1ccc2c(C(=O)O)c(O)c(-c3ccc(Cl)cc3)nc2c1

- IC50 [1]: 212 µM
Structure (SMILES): Cc1cccc2c(C(=O)O)c(O)c(-c3ccc(Cl)cc3)nc12
- IC50 (HUVEC): 13 µM

More lines, now with the values behind:

Structure (SMILES): O=C(O)c1c(O)c(-c2ccc(Cl)cc2)nc2c(OC(F)(F)F)cccc12
- IC50 (HUVEC): 10.5 µM
- IC50 [1]: 130 µM

Structure (SMILES): CC(C)c1cccc2c(C(=O)O)c(O)c(-c3ccc(Cl)cc3)nc12
- IC50 (HUVEC): 4.7 µM
- Cmax [2]: 7 µM
- AUC [3]: 6.7 µM·h
- IC50 [1]: 283 µM
- clearance [4]: 6.5 mL/min/kg

Structure (SMILES): CCC(C)c1cccc2c(C(=O)O)c(O)c(-c3ccc(Cl)cc3)nc12 (stereo not drawn)
- IC50 (HUVEC): 3 µM
- Cmax [2]: 6.7 µM
- AUC [3]: 3.45 µM·h
- IC50 [1]: 301 µM
- clearance [4]: 13.3 mL/min/kg

Structure (SMILES): Cc1ccc(-c2cc(C(F)(F)F)nn2-c2ccc(S(N)(=O)=O)cc2)cc1
- Activity (Rattus norvegicus [6]): Active

Structure (SMILES): CCc1cccc2c(C(=O)O)c(O)c(-c3ccc(Cl)cc3)nc12
- IC50 (HUVEC): 10 µM

Structure (SMILES): Cc1ccc2c(C(=O)O)c(O)c(-c3cccc(Cl)c3)nc2c1C
- IC50 (HUVEC): 5 µM

Structure (SMILES): O=C(O)c1cc(-c2ccccc2)nc2ccccc12
- inhibition [10]: 22%

Structure (SMILES): CCN(CC)c1ccc(-c2nc3c(C)c(C)ccc3c(C(=O)O)c2O)cc1
- IC50 (HUVEC): 19 µM

Structure (SMILES): Oc1cc2ccccc2nc1-c1ccccc1
- Activity [10]: inactive

Structure (SMILES): Cc1ccc2c(C(=O)O)c(O)c(-c3ccc(C(C)C)cc3)nc2c1C
- IC50 (HUVEC): 8 µM

Structure (SMILES): Cc1ccc2c(C(=O)O)c(O)c(-c3ccc(OC(F)(F)F)cc3)nc2c1C
- IC50 (HUVEC): 15 µM

Structure (SMILES): O=C(O)c1c(O)c(-c2ccc(Cl)cc2)nc2ccc(OC(F)(F)F)cc12
- IC50 (HUVEC): 25 µM

Structure (SMILES): O=C(O)c1c(O)c(-c2ccc(Cl)cc2)nc2c(C(F)(F)F)cccc12
- IC50 (HUVEC): 13 µM
- IC50 [1]: 136 µM

Structure (SMILES): Nc1c(-c2ccc(-c3ccccc3)cc2)nc2ccc(F)cc2c1C(=O)O
- LD50 [17]: 20.5 mg/kg
- IC50 [1]: 0.012 µM

Structure (SMILES): Cc1ccc2c(C(=O)O)c(O)c(-c3ccc(Br)cc3)nc2c1C
- IC50 (HUVEC): 6 µM
- Cmax [2]: 5.5 µM
- AUC [3]: 6.52 µM·h
- clearance [4]: 6.2 mL/min/kg

Structure (SMILES): Cc1ccc2c(C(=O)O)c(O)c(-c3ccc(C(F)(F)F)cc3)nc2c1C
- IC50 (HUVEC): 7 µM
- Cmax [2]: 9 µM
- AUC [3]: 8.58 µM·h
- clearance [4]: 4.7 mL/min/kg

Structure (SMILES): Cc1cc(OC(F)(F)F)cc2c(C(=O)O)c(O)c(-c3ccc(Cl)cc3)nc12
- IC50 (HUVEC): 15.5 µM

Structure (SMILES): COc1ccc2cc([C@H](C)C(=O)O)ccc2c1 [NAPROXEN]
- inhibition in vivo at 10 mg/kg (Rattus norvegicus [15]): 68.3%

Structure (SMILES): CN(C)c1ccc(-c2cccc3c(C(=O)O)c(O)c(-c4ccc(Cl)cc4)nc23)cc1
- IC50 (HUVEC): 20 µM

Structure (SMILES): Cc1ccc2c(C(=O)O)c(O)c(-c3cccc(OC(F)(F)F)c3)nc2c1C
- IC50 (HUVEC): 5 µM

Structure (SMILES): COc1c(-c2ccccc2)nc2ccccc2c1C(=O)O
- inhibition [10]: 22%
